Data from ChEMBL document CHEMBL1151341, “Constituents of Nealchornea yapurenis (Euophorbiaceae)” (J Nat Prod, 1980).
The source made the active and inactive calls. The rule behind the calls is not given here.

Tested on: P388
Assay: Antitumor activity against mouse P388 cells xenografted in mouse at 50 to 400 mg/kg
Format: functional, organism-based

| Compound | Activity |
| --- | --- |
| CCCCCCCCCCCCCCCCCCCCCCCCCC(=O)O | inactive |
| CC[C@H](CC[C@@H](C)[C@H]1CC[C@H]2[C@@H]3CC=C4C[C@@H](O[C@@H]5O[C@H](CO)[C@@H](O)[C@H](O)[C@H]5O)CC[C@]4(C)[C@H]3CC[C@]12C)C(C)C | inactive |
| CC[C@H](CC[C@@H](C)[C@H]1CC[C@H]2[C@@H]3CC=C4C[C@@H](O)CC[C@]4(C)[C@H]3CC[C@]12C)C(C)C | inactive |
| COc1cc2ccc(=O)oc2cc1O | inactive |
